Results from publication PMC10281575, “PfCRT mutations conferring piperaquine resistance in falciparum malaria shape the kinetics of quinoline drug binding and transport” (PLOS Pathogens, 2023).
Where “and” joins values, the source holds several entries; their conditions need not be identical. Equal values may be shown once.

Target: T1, PfCRT^Dd2 (Plasmodium falciparum, UniProt Q8IBZ9, A220S/I356T/K76T/M74I/N326S/N75E/Q271E/R371I)
T1 sequence (Q8IBZ9 1-424 M74I/N75E/K76T/A220S/Q271E/N326S/I356T/R371I): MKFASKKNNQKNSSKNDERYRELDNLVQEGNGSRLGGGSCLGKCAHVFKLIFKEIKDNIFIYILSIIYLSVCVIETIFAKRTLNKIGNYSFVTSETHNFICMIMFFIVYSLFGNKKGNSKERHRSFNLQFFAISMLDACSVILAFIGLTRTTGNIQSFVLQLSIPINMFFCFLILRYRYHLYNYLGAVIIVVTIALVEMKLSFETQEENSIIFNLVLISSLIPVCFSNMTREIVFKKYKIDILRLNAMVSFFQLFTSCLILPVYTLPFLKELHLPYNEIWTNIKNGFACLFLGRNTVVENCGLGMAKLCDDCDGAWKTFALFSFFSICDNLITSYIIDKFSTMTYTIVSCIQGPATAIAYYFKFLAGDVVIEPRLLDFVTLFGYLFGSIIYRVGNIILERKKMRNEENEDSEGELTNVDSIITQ
Test: Competition kinetics of drug transport (radiolabeled substrate plus cold inhibitor), PfCRT^Dd2-expressing oocytes
Assay type: cell-based
Design: expressed in transfected cells; host or cells: Xenopus laevis oocytes injected with in vitro transcribed RNA (pSP64T)
Conditions: single replicates
Description: The experimental procedure and the data analysis were as described above.
The difference between the two models lies in the value of α, a parameter describing how much the affinity for the substrate changes when the inhibitor is already bound, and vice versa. […] The resulting Vmax,app values and the Vmax,app/KM,app ratios were plotted as a function of the inhibitor concentration (Fig 5A).
Drug transport assays were performed as previously described. Briefly, measurements of radiolabeled drug uptake were made over 1 h, unless otherwise specified. […] Where specified, one or more unlabeled drugs were also present at the indicated concentrations. […] The uptake assays were terminated by removing the oocytes from the reaction medium and washing them three times with 2 mL of ice-cold ND96 buffer. Each oocyte was transferred to a separate scintillation vial and lysed by the addition of 200 μL of a 5% SDS solution. The radioactivity in the sample was measured using a liquid scintillation analyser Tri-Carb 4910 TR (PerkinElmer). Water-injected oocytes were analyzed in parallel as a negative control. The buffer from each condition was measured in duplicate in parallel to each experiment to transform counts per minute into pmol of drug. Drug uptake attributable to PfCRT was determined by subtracting the background uptake from water-injected oocytes from that of PfCRT-expressing oocytes. In all cases, at least three independent experiments were performed on oocytes from different frogs, and for each condition in an experiment, measurements were made from 10 oocytes per treatment.
The following equations were adopted from Segel (1993), and the reader is referred to that text for the assumptions made in the author’s approach in the derivation of each equation [31]. The concentration of substrate is denoted as [S1] and the concentration of the inhibiting substrate is denoted as [S2]. KS1 and KS2 are the dissociation constants for the respective substrate-protein complexes.
Analyses of the kinetic data were performed using SigmaPlot version 13.0 and Python. The drug competition models were globally fit to the kinetic data using the least-squares method and ranked according to their corrected Akaike information criterion difference (ΔAICC) and their Akaike weight, using Python. The two top-ranked models were compared using an F-test.
This factor reflects how much the affinity of the transporter for one drug changes when the other drug is already bound in the protein cavity. In the former model, α > 0 and α ≠ 1. In the latter model, it could be thought of as if α = 1. Because of this, discriminating between the two models also means determining the value of α. In Mixed-type (Partial) inhibition, the apparent maximal velocity (Vmax,app) is given by Eq 22, Vmax,app=Vmax(1+β[S2]/αKS2)/(1+[S2]/αKS2) (Eq 22)
Vmax,app is the maximal rate of substrate transport at a certain inhibitor concentration. The half-maximal inhibitory concentration is given by the term in the denominator different from [S2], which in this case is αKS2. This means that by plotting Vmax,app as a function of [S2], the value of αKS2 can be derived after fitting the curve to Eq 23.
The half-maximal inhibitory concentration derived from this hyperbolic equation is equal to KS2. By plotting Vmax,app/KM,app as a function of [S2], one can derive KS2 after fitting the curve to Eq 25. The value of α can then be calculated dividing αKS2 by KS2.

## CCN(CC)CCCC(C)Nc1ccnc2cc(Cl)ccc12 (stereo not drawn) [CQ, chloroquine]
0 µM PPQ
  PfCRTDd2-mediated CQ transport 10 µM CQ: 0.87 pmol oocyte-1 h-1 and 1.33 pmol oocyte-1 h-1 and 1.00 pmol oocyte-1 h-1 and 0.95 pmol oocyte-1 h-1
  PfCRTDd2-mediated CQ transport 50 µM CQ: 3.90 pmol oocyte-1 h-1 and 4.91 pmol oocyte-1 h-1 and 4.76 pmol oocyte-1 h-1 and 7.49 pmol oocyte-1 h-1 and 10.46 pmol oocyte-1 h-1 and 5.04 pmol oocyte-1 h-1 and 3.98 pmol oocyte-1 h-1
  PfCRTDd2-mediated CQ transport 100 µM CQ: 8.35 pmol oocyte-1 h-1 and 7.99 pmol oocyte-1 h-1 and 8.53 pmol oocyte-1 h-1
  PfCRTDd2-mediated CQ transport 200 µM CQ: 17.86 pmol oocyte-1 h-1 and 12.77 pmol oocyte-1 h-1 and 15.13 pmol oocyte-1 h-1
  PfCRTDd2-mediated CQ transport 300 µM CQ: 20.89 pmol oocyte-1 h-1 and 20.25 pmol oocyte-1 h-1 and 8.92 pmol oocyte-1 h-1 and 15.94 pmol oocyte-1 h-1 and 19.02 pmol oocyte-1 h-1
  PfCRTDd2-mediated CQ transport 400 µM CQ: 20.79 pmol oocyte-1 h-1 and 22.58 pmol oocyte-1 h-1 and 19.58 pmol oocyte-1 h-1 and 16.43 pmol oocyte-1 h-1
50 µM PPQ
  PfCRTDd2-mediated CQ transport 10 µM CQ: 1.41 pmol oocyte-1 h-1 and 1.10 pmol oocyte-1 h-1 and 0.61 pmol oocyte-1 h-1
  PfCRTDd2-mediated CQ transport 50 µM CQ: 6.48 pmol oocyte-1 h-1 and 5.07 pmol oocyte-1 h-1 and 3.08 pmol oocyte-1 h-1 and 4.12 pmol oocyte-1 h-1
  PfCRTDd2-mediated CQ transport 100 µM CQ: 9.49 pmol oocyte-1 h-1 and 7.68 pmol oocyte-1 h-1 and 5.55 pmol oocyte-1 h-1
  PfCRTDd2-mediated CQ transport 200 µM CQ: 13.29 pmol oocyte-1 h-1 and 13.73 pmol oocyte-1 h-1 and 11.63 pmol oocyte-1 h-1
  PfCRTDd2-mediated CQ transport 300 µM CQ: 15.04 pmol oocyte-1 h-1 and 14.02 pmol oocyte-1 h-1 and 15.34 pmol oocyte-1 h-1
  PfCRTDd2-mediated CQ transport 400 µM CQ: 18.68 pmol oocyte-1 h-1 and 19.12 pmol oocyte-1 h-1 and 16.44 pmol oocyte-1 h-1
125 µM PPQ
  PfCRTDd2-mediated CQ transport 10 µM CQ: 0.68 pmol oocyte-1 h-1 and 1.41 pmol oocyte-1 h-1 and 1.40 pmol oocyte-1 h-1
  PfCRTDd2-mediated CQ transport 50 µM CQ: 4.96 pmol oocyte-1 h-1 and 2.54 pmol oocyte-1 h-1 and 3.07 pmol oocyte-1 h-1
  PfCRTDd2-mediated CQ transport 100 µM CQ: 5.95 pmol oocyte-1 h-1 and 8.32 pmol oocyte-1 h-1 and 6.55 pmol oocyte-1 h-1
  PfCRTDd2-mediated CQ transport 200 µM CQ: 10.25 pmol oocyte-1 h-1 and 14.35 pmol oocyte-1 h-1 and 10.52 pmol oocyte-1 h-1
  PfCRTDd2-mediated CQ transport 300 µM CQ: 15.92 pmol oocyte-1 h-1 and 14.01 pmol oocyte-1 h-1 and 11.66 pmol oocyte-1 h-1
  PfCRTDd2-mediated CQ transport 400 µM CQ: 13.83 pmol oocyte-1 h-1 and 18.03 pmol oocyte-1 h-1 and 15.59 pmol oocyte-1 h-1
200 µM PPQ
  PfCRTDd2-mediated CQ transport 10 µM CQ: 0.89 pmol oocyte-1 h-1 and 0.30 pmol oocyte-1 h-1 and 1.02 pmol oocyte-1 h-1
  PfCRTDd2-mediated CQ transport 50 µM CQ: 3.46 pmol oocyte-1 h-1 and 2.63 pmol oocyte-1 h-1 and 3.11 pmol oocyte-1 h-1
  PfCRTDd2-mediated CQ transport 100 µM CQ: 5.59 pmol oocyte-1 h-1 and 6.01 pmol oocyte-1 h-1 and 5.66 pmol oocyte-1 h-1
  PfCRTDd2-mediated CQ transport 200 µM CQ: 10.68 pmol oocyte-1 h-1 and 10.09 pmol oocyte-1 h-1 and 9.74 pmol oocyte-1 h-1
  PfCRTDd2-mediated CQ transport 300 µM CQ: 11.11 pmol oocyte-1 h-1 and 12.97 pmol oocyte-1 h-1 and 12.36 pmol oocyte-1 h-1
  PfCRTDd2-mediated CQ transport 400 µM CQ: 14.22 pmol oocyte-1 h-1 and 13.47 pmol oocyte-1 h-1 and 13.35 pmol oocyte-1 h-1
350 µM PPQ
  PfCRTDd2-mediated CQ transport 10 µM CQ: 1.16 pmol oocyte-1 h-1 and 0.24 pmol oocyte-1 h-1 and 0.95 pmol oocyte-1 h-1
  PfCRTDd2-mediated CQ transport 50 µM CQ: 2.38 pmol oocyte-1 h-1 and 2.66 pmol oocyte-1 h-1 and 3.48 pmol oocyte-1 h-1
  PfCRTDd2-mediated CQ transport 100 µM CQ: 5.36 pmol oocyte-1 h-1 and 3.63 pmol oocyte-1 h-1 and 6.93 pmol oocyte-1 h-1
  PfCRTDd2-mediated CQ transport 200 µM CQ: 11.39 pmol oocyte-1 h-1 and 6.27 pmol oocyte-1 h-1 and 10.49 pmol oocyte-1 h-1
  PfCRTDd2-mediated CQ transport 300 µM CQ: 11.84 pmol oocyte-1 h-1 and 11.95 pmol oocyte-1 h-1 and 8.89 pmol oocyte-1 h-1
  PfCRTDd2-mediated CQ transport 400 µM CQ: 14.38 pmol oocyte-1 h-1 and 9.22 pmol oocyte-1 h-1
500 µM PPQ
  PfCRTDd2-mediated CQ transport 10 µM CQ: 0.43 pmol oocyte-1 h-1 and 1.04 pmol oocyte-1 h-1 and 0.36 pmol oocyte-1 h-1
  PfCRTDd2-mediated CQ transport 50 µM CQ: 2.32 pmol oocyte-1 h-1 and 2.15 pmol oocyte-1 h-1 and 3.29 pmol oocyte-1 h-1
  PfCRTDd2-mediated CQ transport 100 µM CQ: 4.92 pmol oocyte-1 h-1 and 5.26 pmol oocyte-1 h-1 and 4.17 pmol oocyte-1 h-1
  PfCRTDd2-mediated CQ transport 200 µM CQ: 7.85 pmol oocyte-1 h-1 and 9.03 pmol oocyte-1 h-1 and 9.31 pmol oocyte-1 h-1
  PfCRTDd2-mediated CQ transport 300 µM CQ: 11.31 pmol oocyte-1 h-1 and 9.89 pmol oocyte-1 h-1 and 9.29 pmol oocyte-1 h-1
  PfCRTDd2-mediated CQ transport 400 µM CQ: 12.77 pmol oocyte-1 h-1 and 10.16 pmol oocyte-1 h-1 and 8.34 pmol oocyte-1 h-1
